Target: human full-length MKNK1 (Homo sapiens (Human), UniProt Q9BUB5, T344D)
Assay: MKNK1 kinase high ATP assay (TR-FRET)
Format: biochemical
Details: 2 mM ATP, 15 min preincubation with enzyme, GST-MKNK1 (T344D)
Experimental: MKNK1 Kinase High ATP Assay
MKNK1-inhibitory activity at high ATP of compounds of the present invention after their preincubation with MKNK1 was quantified employing the TR-FRET-based MKNK1 high ATP assay as described in the following paragraphs.
A recombinant fusion protein of Glutathione-S-Transferase (GST, N-terminally) and human full-length MKNK1 (amino acids 1-424 and T344D of accession number BAA 19885.1), expressed in insect cells using baculovirus expression system and purified via glutathione sepharose affinity chromatography, was purchased from Carna Biosciences (product no 02-145) and used as enzyme. As substrate for the kinase reaction the biotinylated peptide biotin-Ahx-IKKRKLTRRKSLKG (SEQ ID NO: 1) (C-terminus in amide form) was used, which can be purchased e.g. from the company Biosyntan (Berlin-Buch, Germany)
For the assay 50 nL of a 100 fold concentrated solution of the test compound in DMSO was pipetted into a black low volume 384 well microtiter plate (Greiner Bio-One, Frickenhausen, Germany), 2 μL of a solution of MKNK1 in aqueous assay buffer [50 mM HEPES pH 7.5, 5 mM MgCl2, 1.0 mM dithiothreitol, 0.005% (v/v) Nonidet-P40 (Sigma)] was added and the mixture was incubated for […] at 22° C. to allow pre-binding of the test compounds to the enzyme before the start of the kinase reaction. Then the kinase reaction was started by the addition of 3 μL of a solution of adenosine-tri-phosphate (ATP, 3.3 mM=>final conc. in the 5 μL assay volume is 2 mM) and substrate (0.1 μM=>final conc. in the 5 μL assay volume is 0.06 μM) in assay buffer and the resulting mixture was incubated for a reaction time of 30 min at 22° C. The concentration of MKNK1 was adjusted depending of the activity of the enzyme lot and was chosen appropriate to have the assay in the linear range, typical concentrations were in the range of 0.003 μg/mL. The reaction was stopped by the addition of 5 μL of a solution of TR-FRET detection reagents (5 nM streptavidine-XL665 [Cisbio Bioassays, Codolet, France] and 1 nM anti-ribosomal protein S6 (pSer236)-antibody from Invitrogen [#44921G] and 1 nM LANCE EU-W1024 labeled ProteinG [Perkin-Elmer, product no. AD0071]) in an aqueous EDTA-solution (100 mM EDTA, 0.1% (w/v) bovine serum albumin in 50 mM HEPES pH 7.5).
The resulting mixture was incubated for 1 h at 22° C. to allow the formation of complex between the phosphorylated biotinylated peptide and the detection reagents. Subsequently the amount of phosphorylated substrate was evaluated by measurement of the resonance energy transfer from the Eu-chelate to the streptavidine-XL. Therefore, the fluorescence emissions at 620 nm and 665 nm after excitation at 350 nm were measured in a TR-FRET reader, e.g. a Rubystar (BMG Labtechnologies, Offenburg, Germany) or a Viewlux (Perkin-Elmer). The ratio of the emissions at 665 nm and at […] was taken as the measure for the amount of phosphorylated substrate. The data were normalised (enzyme reaction without inhibitor=0% inhibition, all other assay components but no enzyme=100% inhibition).

human full-length MKNK1, sequence (Q9BUB5 other isoform, or with tags, fused parts or gaps T344D): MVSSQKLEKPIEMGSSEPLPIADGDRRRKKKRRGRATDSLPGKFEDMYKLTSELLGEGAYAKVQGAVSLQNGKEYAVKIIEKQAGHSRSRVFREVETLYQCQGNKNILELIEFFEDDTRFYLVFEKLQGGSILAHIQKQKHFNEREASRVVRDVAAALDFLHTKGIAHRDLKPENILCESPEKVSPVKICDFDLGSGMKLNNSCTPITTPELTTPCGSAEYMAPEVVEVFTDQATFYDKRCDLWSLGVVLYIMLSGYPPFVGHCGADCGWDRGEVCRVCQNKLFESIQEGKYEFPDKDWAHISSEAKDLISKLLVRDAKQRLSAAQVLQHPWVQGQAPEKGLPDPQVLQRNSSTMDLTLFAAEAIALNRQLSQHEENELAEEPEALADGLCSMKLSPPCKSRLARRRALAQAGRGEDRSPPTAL

Going from `Cc1cc(Nc2ncnc3c2ncn3CC(C)O)c(=O)n2c1C(=O)NC21CCCCC1` (racemic) [Example 39, (RS)-6′-{[9-(2-Hydroxypropyl)-9H-purin-6-yl]amino}-8′-methyl-2′H-spiro[cyclohexane-1,3′-imidazo[1,5-a]pyridine]-1′,5′-dione] to `Cc1cc(Nc2ncnc3[nH]ncc23)c(=O)n2c1C(=O)NC21CCCCC1` [Example 7, 8′-Methyl-6′-(1H-pyrazolo[3,4-d]pyrimidin-4-ylamino)-2′H-spiro[cyclohexane-1,3′-imidazo[1,5-a]pyridine]-1′,5′-dione], the IC50 falls from 744 nM to 2 nM (370-fold).

Compared with `Cc1cc(Nc2ncnc(NC(=O)C3CC3)n2)c(=O)n2c1C(=O)NC21CCCCC1` [Example 1, N-{4-[(8′-Methyl-1′,5′-dioxo-1′,5′-dihydro-2′H-spiro[cyclohexane-1,3′-imidazo[1,5-a]pyridin]-6′-yl)amino]-1,3,5-triazin-2-yl}cyclopropanecarboxamide], `CCCNC(=O)Nc1ncnc(Nc2cc(C)c3n(c2=O)C2(CCCCC2)NC3=O)n1` [Example 3, 1-{4-[(8′-Methyl-1′,5′-dioxo-1′,5′-dihydro-2′H-spiro[cyclohexane-1,3′-imidazo[1,5-a]pyridin]-6′-yl)amino]-1,3,5-triazin-2-yl}-3-propylurea] is 7.5-fold higher in IC50: 2.5 nM for the first, 18.8 nM for the second. The first is the more potent here.

Going from `Cc1cc(Nc2ncnc(N)n2)c(=O)n2c1C(=O)NC21CCCCC1` [Example 2, 6′-[(4-Amino-1,3,5-triazin-2-yl)amino]-8′-methyl-2′H-spiro[cyclohexane-1,3′-imidazo[1,5-a]pyridine]-1′,5′-dione] to `Cc1cc(Nc2ccnc(N)n2)c(=O)n2c1C(=O)NC21CCCCC1` [Example 21, 6′-[(2-Aminopyrimidin-4-yl)amino]-8′-methyl-2′H-spiro[cyclohexane-1,3′-imidazo[1,5-a]pyridine]-1′,5′-dione], the IC50 rises from 6.4 nM to 339 nM (53-fold). The first is the more potent here.

First: Cc1cc(Nc2ccnc3ccccc23)c(=O)n2c1C(=O)NC21CCCCC1 [Example 4, 8′-Methyl-6′-(quinolin-4-ylamino)-2′H-spiro[cyclohexane-1,3′-imidazo[1,5-a]pyridine]-1′,5′-dione]
Second: Cc1cc(Nc2ncnc3ccccc23)c(=O)n2c1C(=O)NC21CCCCC1 [Example 8, 8′-Methyl-6′-(quinazolin-4-ylamino)-2′H-spiro[cyclohexane-1,3′-imidazo[1,5-a]pyridine]-1′,5′-dione]
The IC50 of the first is 11-fold higher: 306 nM for the first, 28.3 nM for the second.

Going from `Cc1cc(Nc2ncnc3sccc23)c(=O)n2c1C(=O)NC21CCCCC1` [Example 5, 8′-Methyl-6′-(thieno[2,3-d]pyrimidin-4-ylamino)-2′H-spiro[cyclohexane-1,3′-imidazo[1,5-a]pyridine]-1′,5′-dione] to `Cc1cc(Nc2ncnc3[nH]ccc23)c(=O)n2c1C(=O)NC21CCCCC1` [Example 6, 8′-Methyl-6′-(7H-pyrrolo[2,3-d]pyrimidin-4-ylamino)-2′H-spiro[cyclohexane-1,3′-imidazo[1,5-a]pyridine]-1′,5′-dione], the IC50 falls from 6.4 nM to 0.3 nM (21-fold). The second is the more potent here.

First: Cc1cc(Nc2ncnc3sc(C(=O)O)cc23)c(=O)n2c1C(=O)NC21CCCCC1 [Example 9, 4-[(8′-Methyl-1′,5′-dioxo-1′,5′-dihydro-2′H-spiro[cyclohexane-1,3′-imidazo[1,5-a]pyridin]-6′-yl)amino]thieno[2,3-d]pyrimidine-6-carboxylic acid]
Second: Cc1cc(Nc2ncnc3sc(C(=O)N(C)C)cc23)c(=O)n2c1C(=O)NC21CCCCC1 [Example 10, N,N-Dimethyl-4-[(8′-methyl-1′,5′-dioxo-1′,5′-dihydro-2′H-spiro[cyclohexane-1,3′-imidazo[1,5-a]pyridin]-6′-yl)amino]thieno[2,3-d]pyrimidine-6-carboxamide]
The IC50 of the first is 4.8-fold higher: 82.6 nM for the first, 17.1 nM for the second. The second is the more potent here.

Going from `COCCN(C)C(=O)c1cc2c(Nc3cc(C)c4n(c3=O)C3(CCCCC3)NC4=O)ncnc2s1` [Example 11, N-(2-Methoxyethy)-N-methyl-4-[(8′-methyl-1′,5′-dioxo-1′,5′-dihydro-2′H-spiro[cyclohexane-1,3′-imidazo[1,5-a]pyridin]-6′-yl)amino]thieno[2,3-d]pyrimidine-6-carboxamide] to `Cc1cc(Nc2ncnc3sc(C(=O)N(C)CCN(C)C)cc23)c(=O)n2c1C(=O)NC21CCCCC1` [Example 13, N-[2-(Dimethylamino)ethyl]-N-methyl-4-[(8′-methyl-1′,5′-dioxo-1′,5′-dihydro-2′H-spiro[cyclohexane-1,3′-imidazo[1,5-a]pyridin]-6′-yl)amino]thieno[2,3-d]pyrimidine-6-carboxamide], the IC50 falls from 36.9 nM to 5.2 nM (7.1-fold). The second is the more potent here.

`Cc1cc(Nc2ncnc3sc(C(=O)N4CCN(C)CC4)cc23)c(=O)n2c1C(=O)NC21CCCCC1` [Example 12, 8′-Methyl-6′-({6-[(4-methylpiperazin-1-yl)carbonyl]thieno[2,3-d]pyrimidin-4-yl}amino)-2′H-spiro[cyclohexane-1,3′-imidazo[1,5-a]pyridine]-1′,5′-dione] and `Cc1cc(Nc2ncnc3sc(C(=O)N4CCN(C)CC4)c(C)c23)c(=O)n2c1C(=O)NC21CCCCC1` [Example 19, 8′-methyl-6′-({5-methyl-6-[(4-methylpiperazin-1-yl)carbonyl]thieno[2,3-d]pyrimidin-4-yl}amino)-2′H-spiro[cyclohexane-1,3′-imidazo[1,5-a]pyridine]-1′,5′-dione] are within 1.5-fold of each other in IC50: 27.2 nM for the first, 34.2 nM for the second.

First: Cc1cc(Nc2ncnc3sc(C(=O)N4CCC(N(C)C)CC4)cc23)c(=O)n2c1C(=O)NC21CCCCC1 [Example 14, 6′-[(6-{[4-(Dimethylamino)piperidin-1-yl]carbonyl}thieno[2,3-d]pyrimidin-4-yl)amino]-8′-methyl-2′H-spiro[cyclohexane-1,3′-imidazo[1,5-a]pyridine]-1′,5′-dione]
Second: Cc1cc(Nc2ncnc3sc(C(=O)N4CCC(N(C)C)CC4)c(C)c23)c(=O)n2c1C(=O)NC21CCCCC1 [Example 20, 6′-[(6-{[4-(Dimethylamino)piperidin-1-yl]carbonyl}-5-methylthieno[2,3-d]pyrimidin-4-yl)amino]-8′-methyl-2′H-spiro[cyclohexane-1,3′-imidazo[1,5-a]pyridine]-1′,5′-dione]
The IC50 of the first is 8.6-fold lower: 4.1 nM for the first, 35.2 nM for the second. The first is the more potent here.

First: Cc1cc(Nc2ncnc3sc(C(=O)O)c(C)c23)c(=O)n2c1C(=O)NC21CCCCC1 [Example 15, 5-Methyl-4-[(8′-methyl-1′,5′-dioxo-1′,5′-dihydro-2′H-spiro[cyclohexane-1,3′-imidazo[1,5-a]pyridin]-6′-yl)amino]thieno[2,3-d]pyrimidine-6-carboxylic acid]
Second: Cc1cc(Nc2ncnc3sc(C(=O)N(C)C)c(C)c23)c(=O)n2c1C(=O)NC21CCCCC1 [Example 16, N,N,5-trimethyl-4-[(8′-methyl-1′,5′-dioxo-1′,5′-dihydro-2′H-spiro[cyclohexane-1,3′-imidazo[1,5-a]pyridin]-6′-yl)amino]thieno[2,3-d]pyrimidine-6-carboxamide]
The IC50 of the first is 3.1-fold lower: 21.3 nM for the first, 66.7 nM for the second.

Compared with `Cc1cc(Nc2ncnc3sc(C(=O)N(C)CCN(C)C)c(C)c23)c(=O)n2c1C(=O)NC21CCCCC1` [Example 17, N-[2-(dimethylamino)ethyl]-N,5-dimethyl-4-[(8′-methyl-1′,5′-dioxo-1′,5′-dihydro-2′H-spiro[cyclohexane-1,3′-imidazo[1,5-a]pyridin]-6′-yl)amino]thieno[2,3-d]pyrimidine-6-carboxamide], `COCCN(C)C(=O)c1sc2ncnc(Nc3cc(C)c4n(c3=O)C3(CCCCC3)NC4=O)c2c1C` [Example 18, N-(2-methoxyethyl)-N,5-dimethyl-4-[(8′-methyl-1′,5′-dioxo-1′,5′-dihydro-2′H-spiro[cyclohexane-1,3′-imidazo[1,5-a]pyridin]-6′-yl)amino]thieno[2,3-d]pyrimidine-6-carboxamide] is 2.6-fold higher in IC50: 40.3 nM for the first, 105 nM for the second.

For `Cc1cc(Nc2ccnc3[nH]ccc23)c(=O)n2c1C(=O)NC21CCCCC1` [Example 22, 8′-Methyl-6′-(1H-pyrrolo[2,3-b]pyridin-4-ylamino)-2′H-spiro[cyclohexane-1,3′-imidazo[1,5-a]pyridine]-1′,5′-dione], the IC50 was 12.3 nM.
